{"source": "patent US12653796B2", "about": "“Compounds for use (in particular RIPA-56) in the prevention and/or treatment of non-alcoholic fatty liver disease” (SORBONNE UNIVERSITE, priority 2019, dated 2026)", "key": {"[1]": {"target": "T1, receptor-interacting protein kinase 1 (RIPK1) (Homo sapiens, UniProt Q13546)", "T1 sequence (Q13546 1-671)": "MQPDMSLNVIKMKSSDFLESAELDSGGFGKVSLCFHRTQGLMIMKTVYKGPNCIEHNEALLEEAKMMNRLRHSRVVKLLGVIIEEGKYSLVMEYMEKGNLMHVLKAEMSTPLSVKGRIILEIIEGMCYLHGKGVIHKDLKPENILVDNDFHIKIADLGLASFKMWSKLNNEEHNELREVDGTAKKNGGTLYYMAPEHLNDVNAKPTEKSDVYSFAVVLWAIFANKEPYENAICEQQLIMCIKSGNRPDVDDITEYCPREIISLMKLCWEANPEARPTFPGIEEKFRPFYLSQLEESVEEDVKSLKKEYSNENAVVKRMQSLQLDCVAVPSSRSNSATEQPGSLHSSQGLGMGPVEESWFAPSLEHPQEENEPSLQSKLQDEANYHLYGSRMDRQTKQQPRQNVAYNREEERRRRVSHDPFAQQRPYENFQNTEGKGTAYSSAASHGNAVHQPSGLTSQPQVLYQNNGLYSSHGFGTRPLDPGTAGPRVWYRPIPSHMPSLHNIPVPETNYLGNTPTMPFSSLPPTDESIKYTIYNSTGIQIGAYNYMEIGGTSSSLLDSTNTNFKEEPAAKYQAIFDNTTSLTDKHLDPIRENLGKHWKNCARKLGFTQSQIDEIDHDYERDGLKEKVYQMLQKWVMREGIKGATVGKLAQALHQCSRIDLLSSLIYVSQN", "details": "Ren et al., J Med Chem 2017; cited from earlier work"}, "[2]": {"tested_on": "primary human steatotic hepatocytes", "assay": "Fat depletion in primary human hepatocytes isolated from steatotic livers of patients with NAFLD", "format": "cell-based", "details": "20 μM, 24 h", "method": "FIG. 7. RIPA-56 treatment induces fat depletion in primary human hepatocytes. Primary human hepatocytes were isolated from steatotic human livers of patients with NAFLD (n=5) (A-C) or from non-steatotic human livers and incubated with free fatty acids to induce steatosis or without (W/O) (n=5) (D-G), and treated with RIPA-56 (20 μM) or DMSO (vehicle) for 24 h. (A, D) Representative Oil Red-O and DAPI images; (B, E) Quantification of Oil Red-O staining normalized for the number of DAPI-stained nuclei; (C, F) Quantification of intracellular triglycerides normalized to protein content; (G) mRNA levels of CPT1A, MTTP and APOB100 were assessed by RT-qPCR, and shown relative to DMSO-treated hepatocytes. Results are shown as mean±SEM; n.s., not significant; *p<0.05; **p<0.01; scale bars, 100 μm. […]\nThe liver fragment was initially perfused with a prewarmed (37° C.) calcium-free buffer supplemented with 5 mmol/L ethylene glycol tetra-acetic acid (Sigma) followed by perfusion with a prewarmed (37° C.) buffer containing 6 mmol/L calcium (CaCl2) and collagenase 0.05% ([…]) (Sigma). […] The count of viable cells was determined using trypan blue exclusion. […]\nIntracellular lipids were stained by means of Oil Red-O (Sigma). […] Fluorescence images were viewed with IX83 Olympus microscope, acquired with Cell-Sens V1.6 and analyzed with FIJI software. […]"}, "[3]": {"tested_on": "primary human hepatocytes", "assay": "Fat depletion in primary human hepatocytes with free fatty acid-induced steatosis", "format": "cell-based", "details": "20 μM, 24 h", "method": "FIG. 7. RIPA-56 treatment induces fat depletion in primary human hepatocytes. Primary human hepatocytes were isolated from steatotic human livers of patients with NAFLD (n=5) (A-C) or from non-steatotic human livers and incubated with free fatty acids to induce steatosis or without (W/O) (n=5) (D-G), and treated with RIPA-56 (20 μM) or DMSO (vehicle) for 24 h. (A, D) Representative Oil Red-O and DAPI images; (B, E) Quantification of Oil Red-O staining normalized for the number of DAPI-stained nuclei; (C, F) Quantification of intracellular triglycerides normalized to protein content; (G) mRNA levels of CPT1A, MTTP and APOB100 were assessed by RT-qPCR, and shown relative to DMSO-treated hepatocytes. Results are shown as mean±SEM; n.s., not significant; *p<0.05; **p<0.01; scale bars, 100 μm. These findings are representative of five independent cell preparations.\nFIG. 9. MLKL controls intrahepatic triglyceride content in hepatocytes. (A-D) Primary human hepatocytes were isolated from non-steatotic human livers and incubated with free fatty acids to induce steatosis, or without (W/O), and treated with necrosulfonamide (NSA) (20 μM) or DMSO (vehicle) for 24 h. (A) Representative Oil Red-O and DAPI images; (B) Quantification of Oil Red-O staining normalized for the number of DAPI-stained nuclei; (C) Quantification of intracellular triglycerides normalized to protein content. (D) mRNA levels of CPT1A, MTTP and APOB100 were assessed by RT-qPCR and shown relative to DMSO-treated hepatocytes; (E-H) AML-12 cells were knocked-out (KO) for MLKL and compared with control (CTL) cells, which underwent a similar CRISPR-Cas9 selection as KO cells; (E) Whole-cell lysates were extracted from CTL and MLKL-KO AML-12 cells and analyzed by Western blot using antibodies against MLKL, Tubulin and GAPDH; (F) Representative Oil Red-O and DAPI images; (G) Oil Red-O staining and (H) triglycerides quantification in fat-loaded cell lines. Results are shown as mean±SEM; n.s., not significant; *p<0.05; **p<0.01; ***p<0.001; scale bars, 100 μm. These experiments are representative of five independent cell preparations.\nThe liver fragment was initially perfused with a prewarmed (37° C.) calcium-free buffer supplemented with 5 mmol/L ethylene glycol tetra-acetic acid (Sigma) followed by perfusion with a prewarmed (37° C.) buffer containing 6 mmol/L calcium (CaCl2) and collagenase 0.05% ([…]) (Sigma). The liver fragment was then gently shaken to disperse liver cells in Hepatocyte Wash Medium (Life Technologies, Villebon-sur-Yvette, France). The resulting cell suspension was filtered through a gauze-lined funnel. Cells were then centrifuged at low speed. The supernatant, containing damaged or dead hepatocytes, non-parenchymal cells and debris were removed and pelleted hepatocytes were re-suspended in Hepatocyte Wash Medium. The count of viable cells was determined using trypan blue exclusion. Freshly isolated normal (steatosis <5%) or steatotic (>10%) hepatocytes were resuspended in Williams medium E (Life technologies) containing 10% fetal calf serum (Eurobio), penicillin (200 U/mL)-streptomycin (200 μg/mL), Fungizone (2.5 μg/mL) and insulin (0.1 U/mL) (Life Technologies). The cells were seeded in 12-, 24- and 96-well plates pre-coated with type I collagen at a density of 0.78×10^6, 0.4×10^6 and 0.5×10^5 viable cells/well, respectively, and incubated overnight at 37° C. in a 5% CO2 atmosphere. The medium was replaced with fresh complete hepatocyte medium supplemented with 1 μmol/L hydrocortisone hemisuccinate (Laboratoires SERB, Paris, France) and hepatocytes were maintained in this medium. To induce steatosis in normal hepatocytes, PHH were incubated with free fatty acid (FFA) mixtures of oleic acid and palmitic acid in a molar ratio 2:1 (500:250 μmol/L), respectively, and with 1% fatty-acid-free BSA for 48 hours.\nTotal RNA was purified from liver tissue using TRIzol reagent (ThermoFisher) and a RNeasy Mini kit (Qiagen, Courtaboeuf, France). […]"}}}
{"smiles": "CCC(C)(C)C(=O)N(O)Cc1ccccc1", "note": "[RIPA-56, N-Benzyl-N-hydroxy-2,2-dimethylbutanamide]", "values": [{"measurement": "RIPK1 inhibitor profile", "setting": "[1]", "value": "selective and metabolically stable inhibitor"}, {"measurement": "intracellular lipid droplets (Oil Red-O)", "setting": "[2]", "value": "marked decrease"}, {"measurement": "intracellular triglyceride content", "setting": "[2]", "value": "marked decrease"}, {"measurement": "intracellular lipid droplets (Oil Red-O)", "setting": "[3]; FFA-induced steatosis", "value": "significant decrease"}, {"measurement": "intracellular triglyceride content", "setting": "[3]; FFA-induced steatosis", "value": "significant decrease"}, {"measurement": "CPT1A, APOB100 and MTTP expression (mRNA)", "setting": "[3]; RT-qPCR", "value": "up-regulation"}]}
